Literature values, collected in patent publication US12594266B2, “Triterpenoid antifungals for the treatment or prevention of Pneumocystis spp. pneumonia” (priority 2019, dated 2026).
Read-outs that look alike come from different tables or passages of the source. *1 amine or outer side, *2 acyl side, *3 side chain or, on linkers, in order; H or OH if unused. Where a SMILES comes first, the peptide text is derived from it. Bridges are numbered along the chain shown (N, C = ends). [ ]: non-standard residue; d: D form. The star is where a group is joined. hTyr(3S-OH,4S-OH,3'-OSO3H) = N[C@H](C(=O)O)[C@H](O)[C@@H](O)c1ccc(O)c(OS(=O)(=O)O)c1; Orn(4R-OH,5R-OH) = O=C([C@H](C[C@@H](O)[C@@H](O)N[*:3])N[*:1])[*:2]; Pro(3S-OH,4S-Me) = C[C@H]1CN[C@H](C(=O)O)[C@H]1O; X1 = CCCCCOc1ccc(-c2cc(-c3ccc(C(=O)*)cc3)no2)cc1; Gln(3R-OH) = NC(=O)C[C@@H](O)[C@H](N)C(=O)O; Hyp = O=C(O)[C@@H]1C[C@@H](O)CN1

Columns and labels:
Pneumocystis spp. = settings: cited from earlier work; for relative effectiveness among echinocandins: murine PCP
[1] = total radioactivity, 15 mg/kg oral, male pigmented Long-Evans rats, cited from earlier work

Question: For `CCCCCOc1ccc(-c2cc(-c3ccc(C(=O)N[C@H]4C[C@@H](O)[C@@H](O)NC(=O)[C@@H]5[C@@H](O)[C@@H](C)CN5C(=O)[C@H]([C@H](O)CC(N)=O)NC(=O)[C@H]([C@H](O)[C@@H](O)c5ccc(O)c(OS(=O)(=O)O)c5)NC(=O)[C@@H]5C[C@@H](O)CN5C(=O)[C@H]([C@@H](C)O)NC4=O)cc3)no2)cc1` [micafungin] (X1-[Orn(4R-OH,5R-OH)]T[Hyp][hTyr(3S-OH,4S-OH,3'-OSO3H)][Gln(3R-OH)][Pro(3S-OH,4S-Me)]; lactam 1-C), which “trophic burden versus untreated control mice” value (Pneumocystis spp.; any dose, intraperitoneal, 3 weeks) is on record?
Answer: The value was “no significant reduction”.

Question: And the “relative effectiveness among echinocandins” value (Pneumocystis spp.)?
Answer: The value was “least effective”.

Question: What does the source list for `CC(C)[C@@H](C)[C@@]1(C)CC[C@]2(C)[C@H]3CC[C@@H]4[C@@]5(COC[C@]4(C)[C@@H](OC[C@](C)(N)C(C)(C)C)[C@H](n4ncnc4-c4ccncc4)C5)C3=CC[C@@]2(C)[C@@H]1C(=O)O` [[^14C]-SCY-078]?
Answer: AUCall ([1]; Adrenal gland): 321.126 μg equiv*h/g; Tissue:Blood AUC Ratio ([1]; Adrenal gland): 48.431; AUCall ([1]; Blood (cardiac)): 6.631 μg equiv*h/g; Tissue:Blood AUC Ratio ([1]; Blood (cardiac)): 1.000; AUCall ([1]; Bone marrow (femur)): 238.388 μg equiv*h/g; Tissue:Blood AUC Ratio ([1]; Bone marrow (femur)): 35.953; AUCall ([1]; Bone): 9.022 μg equiv*h/g; Tissue:Blood AUC Ratio ([1]; Bone): 1.361; AUCall ([1]; Brain (cerebrum)): 0.727 μg equiv*h/g; Tissue:Blood AUC Ratio ([1]; Brain (cerebrum)): 0.110; AUCall ([1]; Cecum): 83.542 μg equiv*h/g; Tissue:Blood AUC Ratio ([1]; Cecum): 12.600; AUCall ([1]; Epididymis): 75.355 μg equiv*h/g; Tissue:Blood AUC Ratio ([1]; Epididymis): 11.365; AUCall ([1]; Esophagus): 41.430 μg equiv*h/g; Tissue:Blood AUC Ratio ([1]; Esophagus): 6.248; AUCall ([1]; Exorbital gland): 523.676 μg equiv*h/g; Tissue:Blood AUC Ratio ([1]; Exorbital gland): 78.980; AUCall ([1]; Eye (lens)): 0.084 μg equiv*h/g; Tissue:Blood AUC Ratio ([1]; Eye (lens)): 0.013; AUCall ([1]; Eye (uvea)): 777.035 μg equiv*h/g; Tissue:Blood AUC Ratio ([1]; Eye (uvea)): 117.191; AUCall ([1]; Heart (myocardium)): 66.558 μg equiv*h/g; Tissue:Blood AUC Ratio ([1]; Heart (myocardium)): 10.038; AUCall ([1]; Kidney (cortex)): 165.880 μg equiv*h/g; Tissue:Blood AUC Ratio ([1]; Kidney (cortex)): 25.018; AUCall ([1]; Kidney (medulla)): 136.610 μg equiv*h/g; Tissue:Blood AUC Ratio ([1]; Kidney (medulla)): 20.603; AUCall ([1]; Large intestine): 57.682 μg equiv*h/g; Tissue:Blood AUC Ratio ([1]; Large intestine): 8.727; AUCall ([1]; Liver): 374.517 μg equiv*h/g; Tissue:Blood AUC Ratio ([1]; Liver): 56.484; AUCall ([1]; Lung): 175.593 μg equiv*h/g; Tissue:Blood AUC Ratio ([1]; Lung): 26.483; AUCall ([1]; Lymph node): 251.036 μg equiv*h/g; Tissue:Blood AUC Ratio ([1]; Lymph node): 37.861; AUCall ([1]; Oral mucosa): 36.782 μg equiv*h/g; Tissue:Blood AUC Ratio ([1]; Oral mucosa): 5.547; AUCall ([1]; Pancreas): 110.455 μg equiv*h/g; Tissue:Blood AUC Ratio ([1]; Pancreas): 16.659; AUCall ([1]; Pituitary): 640-809 μg equiv*h/g; Tissue:Blood AUC Ratio ([1]; Pituitary): 96.645; AUCall ([1]; Prostate gland): 61.301 μg equiv*h/g; Tissue:Blood AUC Ratio ([1]; Prostate gland): 9.245; AUCall ([1]; Salivary gland): 149.193 μg equiv*h/g; Tissue:Blood AUC Ratio ([1]; Salivary gland): 22.501; AUCall ([1]; Seminal vesicle): 26.827 μg equiv*h/g; Tissue:Blood AUC Ratio ([1]; Seminal vesicle): 4.046; AUCall ([1]; Skeletal muscle): 28.304 μg equiv*h/g; Tissue:Blood AUC Ratio ([1]; Skeletal muscle): 4.269; AUCall ([1]; Skin (non-pigmented)): 74.884 μg equiv*h/g; Tissue:Blood AUC Ratio ([1]; Skin (non-pigmented)): 11.294; AUCall ([1]; Skin (pigmented)): 110.249 μg equiv*h/g; Tissue:Blood AUC Ratio ([1]; Skin (pigmented)): 16.627; AUCall ([1]; Small intestine): 141.607 μg equiv*h/g; Tissue:Blood AUC Ratio ([1]; Small intestine): 21.357; AUCall ([1]; Spleen): 507.638 μg equiv*h/g; Tissue:Blood AUC Ratio ([1]; Spleen): 75.561; AUCall ([1]; Stomach (gastric mucosa)): 181.074 μg equiv*h/g; Tissue:Blood AUC Ratio ([1]; Stomach (gastric mucosa)): 27.309; AUCall ([1]; Testis): 64.972 μg equiv*h/g; Tissue:Blood AUC Ratio ([1]; Testis): 9.799; AUCall ([1]; Thymus): 195.608 μg equiv*h/g; Tissue:Blood AUC Ratio ([1]; Thymus): 29.501; AUCall ([1]; Thyroid): 291.187 μg equiv*h/g; Tissue:Blood AUC Ratio ([1]; Thyroid): 43.916; AUCall ([1]; Urinary bladder): 45.955 μg equiv*h/g; Tissue:Blood AUC Ratio ([1]; Urinary bladder): 6.931

Question: For `CC[C@H](C)C[C@H](C)CCCCCCCCC(=O)N[C@H]1C[C@@H](O)[C@@H](NCCN)NC(=O)[C@@H]2[C@@H](O)CCN2C(=O)[C@H]([C@H](O)CCN)NC(=O)[C@H]([C@H](O)[C@@H](O)c2ccc(O)cc2)NC(=O)[C@@H]2C[C@@H](O)CN2C(=O)[C@H]([C@@H](C)O)NC1=O` [caspofungin], which “relative effectiveness among echinocandins” value (Pneumocystis spp.) is on record?
Answer: The value was “most effective”.
